US12054475B2, “Substituted heterocycles as aldehyde dehydrogenase inhibitors” (KayoThera Inc., priority 2021, dated 2024)
Values joined by “and” are separate entries in the source; they are usually repeats but may differ in a detail not shown here. Identical values can stand only once.

Tests used:
[1] = Pharmacokinetic profiling in mice; conditions: for plasma half-life, IV bolus dosing / plasma half-life, PO oral gavage dosing / oral bioavailability: male CD-1/C57BL/6 mice; for plasma half-life, IV bolus dosing / oral bioavailability: 1 mg/kg intravenous; for plasma half-life, PO oral gavage dosing / oral bioavailability: 10 mg/kg oral gavage
[2] = system: T3-MCA fibrosarcoma cell line allografts; assay: T3-MCA fibrosarcoma allograft study; format: in vivo, C57BL6 syngeneic mice; conditions: for tolerability / tumor growth: oral, 40 mg/kg once daily for twelve days
Description: In one allograft study, T3-MCA fibrosarcoma cell line allografts were implanted subcutaneously into C57BL6 syngeneic mice. […] Tumor volume were measured on day 8, 14, and 17 post inoculation for each group, and tumor mass were measured at the end of the study.
In another allograft study, T3-MCA fibrosarcoma cell line allografts were implanted subcutaneously into C57BL6 syngeneic mice.

hALDH1a2 [3] = molecular target: T1, hALDH1a2 (Homo sapiens (Human), UniProt O94788); assay: Cell based assay: STRA6 mRNA by q-rtPCR in MCF7 cells expressing ALDH1a2; conditions: 20 hours incubation, read-out: IC50 (ALDH1a2), STRA6 mRNA levels
T1 sequence (O94788 whole entry): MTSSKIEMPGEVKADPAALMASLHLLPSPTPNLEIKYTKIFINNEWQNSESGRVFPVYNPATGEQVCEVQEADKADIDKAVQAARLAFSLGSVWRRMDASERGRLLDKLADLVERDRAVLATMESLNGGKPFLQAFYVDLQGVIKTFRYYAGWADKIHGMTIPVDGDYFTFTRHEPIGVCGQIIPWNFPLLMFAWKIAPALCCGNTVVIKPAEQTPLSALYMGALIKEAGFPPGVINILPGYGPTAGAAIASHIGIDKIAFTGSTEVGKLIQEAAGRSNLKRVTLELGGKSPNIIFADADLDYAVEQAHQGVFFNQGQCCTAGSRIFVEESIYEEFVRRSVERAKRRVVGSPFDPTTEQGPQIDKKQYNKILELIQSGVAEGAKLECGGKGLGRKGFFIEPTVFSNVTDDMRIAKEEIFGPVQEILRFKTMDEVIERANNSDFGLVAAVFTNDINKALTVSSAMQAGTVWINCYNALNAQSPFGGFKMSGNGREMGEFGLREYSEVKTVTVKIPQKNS
Description: (§1) MCF7 cells were stably transduced with lentiviral vectors encoding human ALDH1a1, ALDH1a2 or ALDH1a3 or Vector control and selected by puromycin to establish stable cultures that were verified for overexpression by western blotting and Aldefluor activity. Cells were plated into 6 cm plates in regular DMEM media supplement with […]. At the beginning of the assay, cells were washed with PBS for 5 minutes followed by addition of compound solvated into DMEM media with 10% FBS or corresponding DMSO controls, maintaining DMSO at a constant concentration of 0.1% across all samples. Following 20 hours of incubation at 37 C, cells were lysed and RNA was extracted using a Qiagen RNAeasy kit. cDNA was synthesized using the Superscript IV kit and retinoid activation was measured using STRA6 mRNA levels as a proxy as measured by q-rtPCR.

hALDH1a2 [4] = molecular target: T1, hALDH1a2; assay: Aldh1a2 enzyme inhibition assay (recombinant enzyme, resorufin fluorescence); format: biochemical
[5] = system: T3-MCA fibrosarcoma cell line allografts; assay: Combination with anti-PD-1 in T3-MCA fibrosarcoma allografts; format: in vivo, C57BL6 syngeneic mice; conditions: for tumor growth as a single agent: 40 mg/kg daily equivalent, oral medicated diet, Day 9 to Day 25
Description: T3-MCA fibrosarcoma cell line allografts were implanted subcutaneously into C57BL6 syngeneic mice. […] Medicated diet was initiated at Day 9 after mice were randomized and continued until termination at Day 25. Anti-PD-1 antibody was administered by intraperitoneal injection at Day 11, 14, 18 and 21 by a 200 uL injection of a 1 mg/mL solution in saline. Tumor volume were measured on day 14, 18, 22, and 25 post inoculation for each group.

[6] = system: K-Ras, p53 −/− undifferentiated pleiomorphic sarcoma cell line allografts; assay: K-Ras, p53 -/- undifferentiated pleiomorphic sarcoma allograft study; format: in vivo, C57BL6 syngeneic mice; conditions: single agent, 20 days; Compound 140 40 mg/kg intraperitoneal, MBE1.5 25 mg/kg daily equivalent in diet
Description: In another allograft study, K-Ras, p53 −/− undifferentiated pleiomorphic sarcoma cell line allografts were implanted subcutaneously into C57BL6 syngeneic mice. […] Tumor volume were measured on day 14, 17, and 24 post inoculation for each group, and tumor mass were measured at the end of the study.

hALDH1a3 [7] = molecular target: T2, hALDH1a3 (Homo sapiens (Human), UniProt P47895); assay: Cell based assay: STRA6 mRNA by q-rtPCR in MCF7 cells expressing ALDH1a3; conditions: 20 hours incubation, read-out: IC50 (Aldh1a3), STRA6 mRNA levels
T2 sequence (P47895 whole entry): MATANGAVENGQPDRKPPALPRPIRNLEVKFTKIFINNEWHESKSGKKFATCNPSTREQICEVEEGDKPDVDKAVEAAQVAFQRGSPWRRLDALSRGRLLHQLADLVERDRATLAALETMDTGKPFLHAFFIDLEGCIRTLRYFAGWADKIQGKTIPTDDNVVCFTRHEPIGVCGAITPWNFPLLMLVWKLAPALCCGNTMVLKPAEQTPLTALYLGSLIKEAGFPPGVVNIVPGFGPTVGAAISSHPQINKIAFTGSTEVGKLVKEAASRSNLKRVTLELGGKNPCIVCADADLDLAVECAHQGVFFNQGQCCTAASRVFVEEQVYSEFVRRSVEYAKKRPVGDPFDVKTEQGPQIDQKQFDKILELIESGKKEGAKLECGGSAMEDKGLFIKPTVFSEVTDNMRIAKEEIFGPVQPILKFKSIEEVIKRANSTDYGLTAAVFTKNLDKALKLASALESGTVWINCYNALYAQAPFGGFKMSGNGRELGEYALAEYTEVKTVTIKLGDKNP
Description: as §1

mALDH1a2 = mALDH1a2 (Mus musculus (Mouse), UniProt Q62148); assay: Aldh1a2 enzyme inhibition assay (recombinant enzyme, resorufin fluorescence); format: biochemical
mALDH1a2, sequence (Q62148 whole entry): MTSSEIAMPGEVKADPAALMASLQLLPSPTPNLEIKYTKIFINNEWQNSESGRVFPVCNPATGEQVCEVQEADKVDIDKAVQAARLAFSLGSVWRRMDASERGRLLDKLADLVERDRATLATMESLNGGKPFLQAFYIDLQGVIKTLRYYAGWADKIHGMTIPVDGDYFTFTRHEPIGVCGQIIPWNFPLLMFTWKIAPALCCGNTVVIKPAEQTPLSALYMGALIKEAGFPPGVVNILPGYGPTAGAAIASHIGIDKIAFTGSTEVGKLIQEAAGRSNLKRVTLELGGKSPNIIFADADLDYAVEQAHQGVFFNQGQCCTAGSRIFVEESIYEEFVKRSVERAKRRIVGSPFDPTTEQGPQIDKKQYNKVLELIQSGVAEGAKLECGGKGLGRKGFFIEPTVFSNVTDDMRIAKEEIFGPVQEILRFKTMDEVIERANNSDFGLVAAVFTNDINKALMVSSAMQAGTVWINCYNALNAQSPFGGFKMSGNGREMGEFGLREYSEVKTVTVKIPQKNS
Description: Recombinant enzyme and inhibitor added immediately before assay. Reaction rate measured by resorufin fluorescence.

hALDH1a3 [8] = molecular target: T2, hALDH1a3; assay: Aldh1a3 enzyme inhibition assay (recombinant enzyme, resorufin fluorescence); format: biochemical; conditions: read-out: hAldh1a3 IC50
Description: (§2) Cells were resuspended in 10 mM […] pH 7.4, 10 mM KCl. […] Recombinant enzyme and inhibitor added immediately before assay. Reaction rate measured by resorufin fluorescence.

mALDH1a3 = mALDH1a3 (Mus musculus (Mouse), UniProt Q9JHW9); assay: as above; format: biochemical; conditions: read-out: mAldh1a3 IC50
mALDH1a3, sequence (Q9JHW9 whole entry): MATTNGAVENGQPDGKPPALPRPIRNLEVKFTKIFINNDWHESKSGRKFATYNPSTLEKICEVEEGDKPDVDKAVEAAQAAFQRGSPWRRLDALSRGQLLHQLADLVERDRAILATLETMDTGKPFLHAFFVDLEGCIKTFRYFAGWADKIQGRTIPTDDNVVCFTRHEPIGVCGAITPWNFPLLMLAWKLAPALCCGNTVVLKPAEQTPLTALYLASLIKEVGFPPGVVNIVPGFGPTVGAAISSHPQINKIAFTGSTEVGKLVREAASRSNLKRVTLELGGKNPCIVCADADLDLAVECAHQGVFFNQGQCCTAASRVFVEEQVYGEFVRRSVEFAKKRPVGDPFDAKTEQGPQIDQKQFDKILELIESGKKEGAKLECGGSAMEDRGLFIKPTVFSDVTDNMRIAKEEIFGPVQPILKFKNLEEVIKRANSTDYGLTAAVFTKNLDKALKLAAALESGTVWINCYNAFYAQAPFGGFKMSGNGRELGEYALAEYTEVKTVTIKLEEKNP
Description: as §2

[9] = system: primary tumors and metastasis; assay: Mouse xenograft models, ALDH1a3 inhibitor in conjunction with paclitaxel; format: in vivo; conditions: with chemotherapy agent paclitaxel

Structure (SMILES)	IC50 (hALDH1a2 [4]) [µM]	IC50 (mALDH1a2) [µM]	IC50 (hALDH1a3 [8]) [µM]	IC50 (mALDH1a3) [µM]	further results
CCc1ccccc1C(=O)Nc1cc2c(cc1F)NC(=O)CC2 [Compound 4]	–	–	–	–	plasma half-life, IV bolus dosing [1]: 1.22 h; plasma half-life, PO oral gavage dosing [1]: 1.70 h; oral bioavailability [1]: 62.5%
CCc1cnccc1C(=O)Nc1cc(C)c2c(c1)CCC(=O)N2 [Compound 140, 3-ethyl-N-(8-methyl-2-oxo-3,4-dihydro-1H-quinolin-6-yl)pyridine-4-carboxamide]	0.099	0.096	–	–	tolerability [2]: excellent tolerability; tumor growth [2]: successful inhibition of tumor growth; tumor growth (caliper measurement, tumor mass at endpoint) ([2]; single agent, once daily for 9 days, Compound 140 40 mg/kg intraperitoneal, MBE1.5 25 mg/kg daily equivalent in diet): successful inhibition of tumor growth as a single agent; IC50 (hALDH1a2 [3]): 0.0276 µM and < 0.05 µM; tumor growth, combined treatment with anti-PD-1 antibody ([5]; 40 mg/kg daily equivalent oral medicated diet plus anti-PD-1 200 microgram i.p. Day 11, 14, 18, 21): synergy with anti-PD-1 antibody in causing tumor regression; tumor growth as a single agent [5]: successful inhibition of tumor growth as a single agent; tumor growth as a single agent ([5]; listed as compound 140): inhibits tumor growth as a single agent; tumor growth (caliper measurement, tumor mass at endpoint) [6]: successful inhibition of tumor growth as a single agent; IC50 (hALDH1a3 [7]): 0.00697 µM and < 0.05 µM
CCc1cnccc1C(=O)Nc1cc2c(c3ccncc13)NC(=O)CC2 [Compound 145, 3-ethyl-N-(2-oxo-3,4-dihydro-1H-1,8-phenanthrolin-6-yl)pyridine-4-carboxamide]	0.12	0.172	< 0.1	< 0.1	–
CCc1cnccc1C(=O)Nc1cc2c(c(C)c1F)NC(=O)CC2 [Compound 146, 3-ethyl-N-(7-fluoro-8-methyl-2-oxo-3,4-dihydro-1H-quinolin-6-yl)pyridine-4-carboxamide]	0.356	0.405	< 0.1	< 0.1	–
CCc1cnccc1C(=O)Nc1cc2c(c(C)c1C)NC(=O)CC2 [Compound 147, N-(7,8-dimethyl-2-oxo-3,4-dihydro-1H-quinolin-6-yl)-3-ethyl-pyridine-4-carboxamide]	0.431	0.358	0.1 to 0.25	0.25 to 1	–
CCc1cnc(Cl)cc1C(=O)Nc1cc(C)c2c(c1)CCC(=O)N2 [Compound 150, 2-chloro-5-ethyl-N-(8-methyl-2-oxo-3,4-dihydro-1H-quinolin-6-yl)pyridine-4-carboxamide]	0.121	0.131	< 0.1	< 0.1	–
Cc1cc(NC(=O)c2ccncc2CC(F)(F)F)cc2c1NC(=O)CC2 [Compound 151, N-(8-methyl-2-oxo-3,4-dihydro-1H-quinolin-6-yl)-3-(2,2,2-trifluoroethyl)pyridine-4-carboxamide]	0.075	0.086	–	–	tolerability [2]: excellent tolerability; tumor growth [2]: successful inhibition of tumor growth; IC50 (hALDH1a2 [3]): 0.0553 µM and < 0.05 µM; IC50 (hALDH1a3 [7]): 0.00125 µM and < 0.05 µM
Cc1cc(NC(=O)c2ccnc3c2CCO3)cc2c1NC(=O)CC2 [Compound 152, N-(8-methyl-2-oxo-3,4-dihydro-1H-quinolin-6-yl)-2,3-dihydrofuro[2,3-b]pyridine-4-carboxamide]	0.807	0.824	1 to 5	0.25 to 1	–
Cc1cc(NC(=O)c2ccnc3c2CCN3)cc2c1NC(=O)CC2 [Compound 153, N-(8-methyl-2-oxo-3,4-dihydro-1H-quinolin-6-yl)-2,3-dihydro-1H-pyrrolo[2,3-b]pyridine-4-carboxamide]	0.492	0.362	1 to 5	0.25 to 1	–
CCc1cnccc1C(=O)Nc1cnc2c(c1)CCC(=O)N2 [Compound 154, 3-ethyl-N-(7-oxo-6,8-dihydro-5H-1,8-naphthyridin-3-yl)pyridine-4-carboxamide]	4.75	8.17	1 to 5	0.25 to 1	–
Cc1cc(NC(=O)c2ccncc2CC2CCC2)cc2c1NC(=O)CC2 [Compound 155]	0.835	1.29	0.25 to 1	1 to 5	–
CCc1cnccc1C(=O)Nc1cc2c(cn1)NC(=O)CC2 [Compound 159, 3-ethyl-N-(2-oxo-3,4-dihydro-1H-1,7-naphthyridin-6-yl)pyridine-4-carboxamide]	2.75	3.18	0.25 to 1	0.25 to 1	–
Cc1cc(Nc2ncc3ccccc3n2)cc2c1NC(=O)C(C)(C)C2 [Compound 160, 3,3,8-trimethyl-6-(quinazolin-2-ylamino)-1,4-dihydroquinolin-2-one]	0.163	0.177	> 5	> 5	–
Cc1cc(Nc2cnc3ccccc3n2)cc2c1NC(=O)C(C)(C)C2 [Compound 161, 3,3,8-trimethyl-6-(quinoxalin-2-ylamino)-1,4-dihydroquinolin-2-one]	0.089	0.114	> 5	0.25 to 1	–
CCc1nnccc1C(=O)Nc1cc(C)c2c(c1)CCC(=O)N2 [Compound 166, 3-ethyl-N-(8-methyl-2-oxo-3,4-dihydro-1H-quinolin-6-yl) pyridazine-4-carboxamide]	1.6	> 10	< 0.1	0.25 to 1	–
O=C1CCc2cc(NC(=O)c3ccncc3CC(F)(F)F)c(F)c(F)c2N1 [Compound 167, N-(7,8-difluoro-2-oxo-3,4-dihydro-1H-quinolin-6-yl)-3-(2,2,2-trifluoroethyl) pyridine-4-carboxamide]	0.754	0.815	< 0.1	< 0.1	–
CCc1cnccc1C(=O)Nc1cc2c(cc1F)NC(=O)CC2 [MBE1]	–	–	–	–	efficacy in conjunction with paclitaxel [9]: effective in treating established metastatic diseases; IC50 (hALDH1a2 [3]): 1.67 µM; IC50 (hALDH1a3 [7]): 0.00367 µM; cage side observations, adverse reactions ([1]; 0 hours to 24 hours post-dosing, mice): no adverse reactions; plasma half-life, IV bolus dosing [1]: 1.79 h; plasma half-life, PO oral gavage dosing [1]: 1.37 h; oral bioavailability [1]: 88%; time plasma concentrations exceed 5-fold the IC50 ([1]; oral gavage (PO) and intravenous (IV) administration, n=3 mice per group): > 10 h
